Reference: US20020025940A1, “Methods and compositions for sensitive and rapid, functional identification of genomic polynucleotides and use for cellular assays in drug discovery” (Aurora Biosciences Corporation, priority 1997, published 2002)
Where two headings read alike, the source gives them in different places.

How the values were obtained:
[1] = system: T-cell receptor pathway (clone J32-6D4)
Description: Thus, this clone was used to identify chemicals that inhibit this T-cell receptor pathway that is also stimulated by the PKC activator PMA.

[2] = system: BLEC integrated RBL-1 cell clones; test: FACS of BLEC-1 integrated RBL-1 clones after ionomycin stimulation (CCF2/AM blue/green); format: cell-based, rat
Description: This library of BLEC-1 integrated clones was loaded with the fluorescent substrate of BL (CCF-2-AM) by adding 10 microM CCF-2-AM in HBSS containing […] at pH 7.1 and 1% glucose. After a 1 hour incubation at 22° C. cells were washed with HBSS and viewed upon excitation with 400 nm light using a 435 nm long pass emission filter. Under these assay conditions 10% of the cells were blue fluorescent indicating they were expressing beta-lactamase.
Fluorescent activated cell sorting of multi-clonal populations of RBL-1 gene integrated clones was used to identify clones with regulated BL gene expression. A BL non-expressing population of cells was isolated by sorting a library of BLEC-1 integrated clones generated by transfection of RBL-1 cells as described in Example 2. 180,000 clones expressing little or no BL were isolated by sorting for clones with a low blue/green ratio (R1 population), as shown in FIG. 4A. This population of clones was grown for seven days and resorted by FACS to test the population's fluorescent properties. […] It is also clear that the total population has shifted towards more green cells compared to the parent population, as shown in FIG. 4A. There are, however, cells with a high blue/green ratio showing up in the green sorted population. These may represent clones in which the BLEC has integrated into a differentially regulated gene such as a gene whose expression changes throughout the cell cycle.
The population of RBL-1 clones shown in FIG. 4B was stimulated by addition of 1 uM ionomycin for 6 hours and resorted to identify clones which had the BLEC integrated into a gene which is inducible by increasing intracellular calcium. A greater percentage of blue clones were present in all three of the blue sub-population (R4, R2, R5) in the ionomycin stimulated when compared to the unstimulated population.

[3] = system: mouse L-cells (mouse fibroblast cell line); test: Proliferation assay (MTT), mouse L-cells; format: cell-based; conditions: concentrations up to 10 microM, five days
Description: (§1) Chemicals A and B were further tested for their anti-proliferative effect on Jurkat cells and mouse L-cells (mouse fibroblast cell line). […] Proliferation assays were performed by seeding about 20,000 cells unactivated by PHA into a 24 well plate. These cells were contacted with chemicals and were then incubated at 37° C. for five days. The cells were contacted with 10 micrograms/ml of MTT (Sigma Chemical Co., MO) for three hours. The cells were then collected, resuspended in isopropanol, and the absorbance was read in a plate reader at a wavelength of 570 nm with a background subtraction at a reading at a wavelength of 690 nm (see, Carmichael et al., Cancer Res. 47:936 (1987)).

[4] = system: Jurkat cells; test: Proliferation assay (MTT), Jurkat cells; format: cell-based, human; conditions: concentrations up to 10 microM, five days
Description: as §1

[5] = 10 microM chemical, 1 microgram/ml of PHA for 18 hours

`C[C@H]1O[C@@H](O[C@H]2[C@@H](O)C[C@H](O[C@H]3[C@@H](O)C[C@H](O[C@H]4CC[C@@]5(C)[C@H](CC[C@@H]6[C@@H]5CC[C@]5(C)[C@@H](C7=CC(=O)OC7)CC[C@]65O)C4)O[C@@H]3C)O[C@@H]2C)C[C@H](O)[C@@H]1O` [Digitoxin] was tested, and the “% Inhibition of PHA activation of Clone J32-6D4” value (shortened to “% Inhibition”) [1, 5] was 77%.
With `C[C@H]1O[C@@H](O[C@H]2[C@@H](O)C[C@H](O[C@H]3[C@@H](O)C[C@H](O[C@H]4CC[C@@]5(C)[C@H](CC[C@@H]6[C@@H]5C[C@@H](O)[C@]5(C)[C@@H](C7=CC(=O)OC7)CC[C@]65O)C4)O[C@@H]3C)O[C@@H]2C)C[C@H](O)[C@@H]1O` [Digoxin] the “% Inhibition” value [1] was 86%.
`[O-][n+]1ccccc1SSc1cccc[n+]1[O-]` [Dipyrithione] was tested, and the “% Inhibition” value [1, 5] was 70%.
For `CN(C)c1ccc(C(=C2C=CC(=[N+](C)C)C=C2)c2ccc(N(C)C)cc2)cc1` [Gentian Violet], the “% Inhibition” value [1, 5] was 73%.
In the case of `C[C@H](CCC(=O)O)C[C@H](C)C[C@H](C)C(=O)/C=C(\O)[C@H](C)C[C@H](C)C/C=C/[C@@H](C)[C@@H](O)[C@@H](C)[C@@H](O)C[C@@H]1CC[C@@](C)([C@H]2CC[C@@](C)([C@@H](C)O)O2)O1` [Ionomycin, ionomycin], the “Ratio +Ion/−Ion, sort window R4 (blue)” value ([2]; 1 uM ionomycin vs unstimulated) is reported as 2.2, the “Ratio +Ion/−Ion, sort window R5” value ([2]; 1 uM ionomycin vs unstimulated) is reported as 1.6 and the “Ratio +Ion/−Ion, sort window R6 (green)” value ([2]; 1 uM ionomycin vs unstimulated) is reported as “.9”. The “Stimulated % of cells in sort window R4 (blue)” value ([2]; 1 uM ionomycin, 6 hours, R4 highest blue/green ratio) was “.24%”, the “Stimulated % of cells in sort window R5” value ([2]; 1 uM ionomycin, 6 hours, R5 lower blue/green ratio) was 2.5% and the “Stimulated % of cells in sort window R6 (green)” value ([2]; 1 uM ionomycin, 6 hours, R6 green) was 61.64%.
With `CCCCC1C(=O)N(c2ccccc2)N(c2ccc(O)cc2)C1=O` (stereo not shown) [Oxyphenbutazone] the “% Inhibition” value [1, 5] was 75%.
For `C[C@@H]1O[C@@H](O[C@H]2C[C@@H](O)[C@]3(CO)[C@H]4[C@H](O)C[C@]5(C)[C@@H](C6=CC(=O)OC6)CC[C@]5(O)[C@@H]4CC[C@]3(O)C2)[C@H](O)[C@H](O)[C@H]1O` [Quabain], the “% Inhibition” value [1, 5] was 50%.
In the case of `Nc1nc2nc[nH]c2c(=S)[nH]1` [Thioguanine], the “% Inhibition” value [1, 5] is reported as 50%.
With `O=C(O)/C=C/c1ccc2ccccc2n1` [chemical B] the “anti-proliferative effect on L-cells” value [3] was “no anti-proliferative effect”, the “anti-proliferative effect on Jurkats” value [4] was “no anti-proliferative effect” and the IC50 ([1]; Homo sapiens, T-cell, read-out: IC50 of the inhibition of PHA activation of beta-lactamase expression) was ~200 nM.
